Measurements reported in publication PMC2821678 (Chemico-biological interactions, 2009).
Read-outs that look alike come from different tables or passages of the source. One block for each molecule: values may come before it.

Legend:
SK-MEL-28 melanoma cells [1] = test: MTT cell viability, SK-MEL-28; type: cell-based, human; conditions: for IC50: Homo sapiens, SK-MEL-28, 48 h
B16-F0 melanoma cells = test: MTT cell viability, B16-F0; type: cell-based, murine; conditions: for IC50: Mus musculus, B16F0, 48 h, read-out: IC50 (48 h) B16-F0
Mushroom tyrosinase [2] = test: Tyrosinase mediated GSH depletion assay; type: biochemical; conditions: for % GSH depletion (2 h) Tyrosinase/O2: 2 h incubation
[3] = test system: tyrosinase shRNA transfected SK-MEL-28 cells; test: Drug sensitivity assay using tyrosinase shRNA transfected cells; type: cell-based, human
[4] = clinical trials terminated; cited from earlier work
SK-MEL-28 melanoma cells [5] = test: Cell cycle analyses by flow cytometry; type: cell-based, human; conditions: 48 h
Mushroom tyrosinase [6] = type: biochemical; conditions: pH 7.4; for Tyrosinase Kinetics AA (rate of AA oxidation): nM of AA per compound (μM) per tyrosinase (U/ml) per min; for Tyrosinase Kinetics NADH (rate of NADH oxidation): nM of NADH per compound (μM) per tyrosinase (U/ml) per min
[7] = test system: amelanotic SK-MEL-24 cells; test: MTT cell viability, SK-MEL-24; type: cell-based; conditions: 75 μM
[8] = MTT cell viability, Saos-2; type: cell-based; conditions: human, Saos-2 osteosarcoma cells
[9] = MTT cell viability, SW-620; type: cell-based; conditions: human, SW-620 colorectal adenocarcinoma cells
[10] = test system: amelanotic C32 melanoma cells; test: Intracellular GSH measurement, C32; type: cell-based, human
[11] = test system: melanocytic SK-MEL-28 melanoma cells; test: Reactive oxygen species; type: cell-based, human
MTT cell viability, BJ = type: cell-based; conditions: human, BJ skin fibroblast cells
B16-F10 melanoma cells = test: MTT cell viability, B16-F10; type: cell-based, murine; conditions: 75 μM
[12] = test system: melanocytic SK-MEL-28 melanoma cells; test: Intracellular GSH measurement, SK-MEL-28; type: cell-based, human
[13] = test system: amelanotic C32 melanoma cells; test: Reactive oxygen species; type: cell-based, human
MeWo cells = test: MTT cell viability, MeWo; type: cell-based, human; conditions: 75 μM
amelanotic C32 cells = test: MTT cell viability, C32; type: cell-based, human; conditions: 75 μM
MTT cell viability, PC-3 = type: cell-based; conditions: human, PC-3 prostate cells
SK-MEL-5 cells = test: MTT cell viability, SK-MEL-5; type: cell-based, human; conditions: 75 μM
[14] = read-out: IC50 (48 h) SK-MEL-28
[15] = 0.75 mM (750 μM), listed as C00002

SMILES: Cc1ccccc1 [Toluene, toluene, reference compound]
- IC50 (SK-MEL-28 melanoma cells [1]; [14]): 10000 µM
- IC50 (B16-F0 melanoma cells): > 10000 µM

- % GSH depletion (2 h) Tyrosinase/O2 (Mushroom tyrosinase [2]): 21±3%
- IC50 (SK-MEL-28 melanoma cells [1]; [14]): > 12000 µM
- IC50 (B16-F0 melanoma cells): > 5000 µM
SMILES: COc1ccccc1 [Anisole, anisole, reference compound]

- % GSH depletion (2 h) Tyrosinase/O2 (Mushroom tyrosinase [2]): 44±3%
- IC50 (SK-MEL-28 melanoma cells [1]; [14]): > 10000 µM
- IC50 (B16-F0 melanoma cells): > 12000 µM
SMILES: CC(=O)c1ccccc1 [Acetophenone, acetophenone, reference compound]

SMILES: CCOC(=O)c1ccccc1 [Ethyl benzoate, ethyl benzoate, reference compound]
- % GSH depletion (2 h) Tyrosinase/O2 (Mushroom tyrosinase [2]): 26±3%
- IC50 (SK-MEL-28 melanoma cells [1]; [14]): 7000 µM
- IC50 (B16-F0 melanoma cells): > 10000 µM

- % GSH depletion Tyrosinase/O2 (Mushroom tyrosinase [2]; measurement conducted at 30 min): 95±3 %
- IC50 (SK-MEL-28 melanoma cells [1]; [14]): 50 µM
- IC50 (B16-F0 melanoma cells): 60 µM
SMILES: COc1ccc(O)cc1 [4-hydroxyanisole]
- cell toxicity when tyrosinase was silenced by shRNA plasmid ([3]; 4-HA 50 μM): significantly less cell toxicity
- liver toxicity in clinical trials [4]: serious liver toxicity

- % GSH depletion (2 h) Tyrosinase/O2 (Mushroom tyrosinase [2]): 25±2%
- IC50 (SK-MEL-28 melanoma cells [1]; [14]): 2200 µM
- IC50 (B16-F0 melanoma cells): 51 µM
SMILES: COc1ccccc1O [2-hydroxyanisole]

- % GSH depletion (2 h) Tyrosinase/O2 (Mushroom tyrosinase [2]): 24±3%
- IC50 (SK-MEL-28 melanoma cells [1]; [14]): 3400 µM
- IC50 (B16-F0 melanoma cells): 43 µM
SMILES: COc1cccc(O)c1 [3-hydroxyanisole]

- IC50 (SK-MEL-28 melanoma cells [1]; [14]): 2000 µM
- IC50 (B16-F0 melanoma cells): 2200 µM
SMILES: OCc1ccc(O)cc1 [4-hydroxybenzyl alcohol]

- % GSH depletion (2 h) Tyrosinase/O2 (Mushroom tyrosinase [2]): 30±5%
- IC50 (SK-MEL-28 melanoma cells [1]; [14]): 11200 µM
- IC50 (B16-F0 melanoma cells): 4200 µM
SMILES: O=C(O)c1ccc(O)cc1 [4-hydroxybenzoic acid]

- Tyrosinase Kinetics AA (rate of AA oxidation) (Mushroom tyrosinase [6]; listed as C00001): 143 nM ^*
- Tyrosinase Kinetics NADH (rate of NADH oxidation) (Mushroom tyrosinase [6]; listed as C00001): 389 nM ^*
- % GSH depletion (2 h) Tyrosinase/O2 (Mushroom tyrosinase [2]): 24±4%
- % GSH depletion (2 h) Tyrosinase/O2 (Mushroom tyrosinase [2]; listed as 4-HEB): 24%
- % GSH depletion (2 h) Tyrosinase/O2 (Mushroom tyrosinase [2]; listed as C00001): 24±4%
- IC50 (SK-MEL-28 melanoma cells [1]; [14]): 75 µM
- Fold ROS formation (40 min) at IC50 ([11]; 75 μM, SK-MEL-28): 24 Fold
- Fold ROS formation (40 min) at IC50 ([13]; 75 μM, C32): 6 Fold
- IC50 (B16-F0 melanoma cells): 190 µM
SMILES: CCOC(=O)c1ccc(O)cc1 [Ethyl 4-hydroxybenzoate, ethyl 4-hydroxybenzoate]
- Apoptosis (Sub G0/G1) (SK-MEL-28 melanoma cells [5]; 75 μM): 2.9±0.3 %
- G1 (SK-MEL-28 melanoma cells [5]; 75 μM): 74.7±0.8%
- G2/M (SK-MEL-28 melanoma cells [5]; 75 μM): 9.9±0.1%
- S (SK-MEL-28 melanoma cells [5]; 75 μM): 12.4±0.7%
- Apoptosis (Sub G0/G1) (SK-MEL-28 melanoma cells [5]; 150 μM): 3.1±0.2 %
- G1 (SK-MEL-28 melanoma cells [5]; 150 μM): 72.1±0.7%
- G2/M (SK-MEL-28 melanoma cells [5]; 150 μM): 10.6±0.9%
- S (SK-MEL-28 melanoma cells [5]; 150 μM): 13.2±1.2%
- Apoptosis (Sub G0/G1) (SK-MEL-28 melanoma cells [5]; 250 μM): 5.0±0.9 %
- G1 (SK-MEL-28 melanoma cells [5]; 250 μM): 63.4±1.8 %
- G2/M (SK-MEL-28 melanoma cells [5]; 250 μM): 10.7±0.7%
- S (SK-MEL-28 melanoma cells [5]; 250 μM): 20.1±2.6 %
- Apoptosis (Sub G0/G1) (SK-MEL-28 melanoma cells [5]; 500 μM): 6.2±0.8 %
- G1 (SK-MEL-28 melanoma cells [5]; 500 μM): 59.8±1.6 %
- G2/M (SK-MEL-28 melanoma cells [5]; 500 μM): 10.9±0.4%
- S (SK-MEL-28 melanoma cells [5]; 500 μM): 22.1±0.9 %
- toxicity prevented by transfection with tyrosinase shRNA clone 3 ([3]; 75 μM, 48 h, shRNA3 curtailed tyrosinase expression by 50%): 24±7%
- anti-proliferative effect [7]: 24±3%
- anti-proliferative effect (SK-MEL-28 melanoma cells [1]; 75 μM, SK-MEL-28): 52±4%
- viability at 75 µM [8]: 86 ± 1%
- viability at 75 µM [9]: 89 ± 4%
- Intracellular GSH (ICG) depletion (2 h) ([10]; 75 μM, listed as 4-HEB): 8%
- Intracellular GSH (ICG) depletion (2 h) ([10]; 75 μM, listed as C00001): 8%
- Intracellular GSH depletion (2 h) ([10]; 150 μM): 13%
- ROS formation ([11]; 75-1500 μM, various time points, SK-MEL-28): dose and time dependent increase
- viability at 75 µM (MTT cell viability, BJ): 89 ± 7%
- anti-proliferative effect (B16-F10 melanoma cells): 60±8%
- Intracellular GSH (ICG) depletion (2 h) ([12]; 75 μM, listed as C00001): 37%
- ROS formation ([13]; 75-1500 μM, C32, compared with SK-MEL-28): significantly less
- anti-proliferative effect (MeWo cells): 55±8%
- anti-proliferative effect (amelanotic C32 cells): 28±4%
- viability at 75 µM (MTT cell viability, PC-3): 85 ± 3%
- anti-proliferative effect (SK-MEL-5 cells): 57±5%
- anti-proliferative effect (B16-F0 melanoma cells; 75 μM, B16-F0): 62±11%

- % GSH depletion (2 h) Tyrosinase/O2 (Mushroom tyrosinase [2]): 29±3%
- IC50 (SK-MEL-28 melanoma cells [1]; [14]): 5000 µM
- IC50 (B16-F0 melanoma cells): 4600 µM
SMILES: OCc1cccc(O)c1 [3-hydroxybenzyl alcohol]

SMILES: CCOC(=O)c1ccc(OC)cc1 [E4MB, ethyl 4-methoxybenzoate]
- Tyrosinase Kinetics AA (rate of AA oxidation) (Mushroom tyrosinase [6]): 8 nM
- Tyrosinase Kinetics AA (rate of AA oxidation) (Mushroom tyrosinase [6]; listed as C00002): 8 nM ^**
- Tyrosinase Kinetics NADH (rate of NADH oxidation) (Mushroom tyrosinase [6]): 50 nM
- Tyrosinase Kinetics NADH (rate of NADH oxidation) (Mushroom tyrosinase [6]; listed as C00002): 50 nM ^**
- % GSH depletion (2 h) Tyrosinase/O2 (Mushroom tyrosinase [2]; listed as C00002): 5±3%
- IC50 (SK-MEL-28 melanoma cells [1]; read-out: IC50 (48 h) SK-MEL-28 cells): 750 µM
- fold decrease in toxicity when compared to 4-HEB (SK-MEL-28 melanoma cells [1]; from IC50 (48 h), SK-MEL-28): 10 fold
- Intracellular GSH (ICG) depletion (2 h) ([10]; 0.75 mM (750 μM)): 6%
- Intracellular GSH (ICG) depletion (2 h) [10, 15]: 6%
- Intracellular GSH depletion (2 h) ([10]; 1 mM): 7%
- Intracellular GSH depletion (2 h) ([10]; 1.5 mM): 10%
- Fold ROS formation (40 min) at IC50 ([11]; 750 μM, SK-MEL-28): 9 Fold
- ROS formation ([11]; 750 μM-5 mM, SK-MEL-28, in comparison to 4-HEB): significantly lower
- Intracellular GSH (ICG) depletion (2 h) ([12]; 0.75 mM (750 μM)): 10%
- Intracellular GSH (ICG) depletion (2 h) [12, 15]: 10%
- Intracellular GSH depletion (2 h) ([12]; 1 mM): 13%
- Intracellular GSH depletion (2 h) ([12]; 1.5 mM): 15%
- Fold ROS formation (40 min) at IC50 ([13]; 750 μM, C32): 4 Fold
- ROS formation ([13]; 750 μM-5 mM, C32): negligible
